Entries after “also recorded” stand apart in the source; their conditions may differ.
How the values were obtained:
[1] = Plasma TMAO in mice on supplemented chow (Example 1); type: in vivo, C57BL/6J.Apoe−/− mice; settings: normal chow supplemented with choline, TMAO or DMB vs normal chow
Method: (§1) Experiments were conducted during development of embodiments of the present invention to examine the structural specificity of phaophatidylcholine metabolites in promoting a pro-atherogenic macrophage phenotype as monitored by endogenous foam cell formation. C57BL/6J.Apoe−/− mice at time of weaning were placed on either normal chow diet (control) or normal chow supplemented with either choline, TMAO or the choline analog DMB, where the quaternary amine nitrogen of choline is replaced with a carbon (SEE FIG. 2, right). Thus, DMB is structurally identical to choline except there is no C—N bond for potential cleavage and TMA formation by gut flora.

peritoneal macrophages [2] = assay: Macrophage cholesterol accumulation in mice on supplemented chow (Example 1); type: in vivo, C57BL/6J.Apoe−/− mice; settings: normal chow supplemented with choline (1.0%), TMAO (0.12%) or DMB (1.0%) vs normal chow
Method: Male C57BL/6J.Apoe−/− mice (15 week old) were placed on normal chow (control) alone or supplemented in the presence of either choline (1.0%), TMAO (0.12%), or DMB (1.0%). Peritoneal macrophages were recovered from the indicated number of mice at 20 weeks of age and cellular cholesterol content was quantified by stable isotope dilution GC/MS, and normalized to DNA content. (b) Schematic illustration of overall pathway.
as §1

Peritoneal macrophages [3] = assay: Cholesterol accumulation and foam cell formation, oil red O staining of peritoneal macrophages (Example 4); type: in vivo, C57BL/6J.Apoe−/− male mice; settings: chow with 1.3% choline and 1.3% DMB
Method: Experiments were conducted during development of embodiments of the present invention to examine the effect of addition of DMB on cholesterol accumulation and foam cell formation. C57BL/6J.Apoe−/− male mice at the time of weaning (4 weeks) were placed on chow diet supplemented with 1.3% choline, 1.3% DMB, both, or neither. Peritoneal macrophages were collected, fixed in 4% paraformaldehyde and stained with oil red 0/hematoxin. Addition of DMB reversed the high choline diet induced cholesterol accumulation and foam cell formation (SEE FIG. 6).

[4] = Plasma lipoprotein profile (Example 3); type: in vivo, mice; settings: 1.3% DMB added to mouse diet
Method: Experiments were conducted during development of embodiments of the present invention to compare plasma levels of (1) cholesterol, (2) triglyceride, low density lipoprotein-cholesterol, and HDL cholesterol in mice fed chow, or chow supplemented with 1.3% choline, 1.3% DMB, or both (SEE FIG. 5).

[5] = tested on: peritoneal mouse macrophages; assay: Total cholesterol in peritoneal macrophages by stable isotope dilution LC/MS/MS (Example 5); type: in vivo, C57BL/6J.Apoe−/− male mice; settings: chow with 1.3% choline and 1.3% DMB
Method: Experiments were conducted during development of embodiments of the present invention to determine the effect of DMB on total cholesterol level in peritoneal mouse macrophages (SEE FIG. 7). C57BL/6J.Apoe−/− male mice at the time of weaning (4 weeks) were placed on chow diet supplemented with 1.3% choline, 1.3% DMB, both, or neither. The total cholesterol of cells was quantified by stable isotope dilution LC/MS/MS. Cells number was quantified by protein content in cell lysates.

[6] = Plasma TMA and TMAO by stable isotope dilution LC/MS/MS in mice on diets (Example 7); type: in vivo
Method: Six week old female mice were placed on the indicated diets +/− shown in FIG. 9, including Chow, CHOW+ antibiotics (ABS; which was 0.5 g/L vancomycin, 1 g/L neomycin sulfate, 1 g/L metronidazole, and 1 g/L ampicillin), TMAO, CH (chow supplemented with 1.0% wt/wt choline), CH and ABS, and CH+DMB. Mice were placed on these diets at 6 weeks of age and maintained on the diets for 3 weeks. Plasma was then recovered and both TMA and TMAO were determined by stable isotope dilution LC/MS/MS. Note that a diet rich in choline (similar to a Western diet) leads to increases in plasma TMA and TMAO levels.
In this example, mice were placed on either normal chow diet at time of weaning, or a high choline diet. After several weeks, whole blood was removed, and platelets isolated. The ability of a submaximal agonist of platelets, ADP, to trigger platelet aggregation was then determined. In parallel, plasma levels of TMAO were determined by established stable isotope dilution LC/MS/MS analyses. […] This is a clear signal of a pro-thrombotic phenotype in the mice on a high choline diet. In a similar study, the mice on the high choline were also placed on a cocktail of broad spectrum antibiotics (described above and in Wang et al., Nature 2011, April, 472(7341):57-63, incorporated by reference it its entirety for all purposes) to suppress intestinal microflora, and reduce plasma TMAO levels. […] Such drugs (e.g., DMB or antibiotics) are attractive since they should not induce excess bleeding (e.g., like commercial anti-thrombotic drugs like clopidogrel or Warfarin). That is, TMAO only accentuates platelet function, and reducing TMAO levels (like with DMB, antibiotic, or some other drug or approach, be it functional food, probiotic, or prebiotic) would decrease in vivo thrombosis, but not reduce below “normal” function, and thus not increase bleeding risk.

[7] = tested on: C57BL/6J.Apoe−/− male mice; assay: Aortic root lesion / atherosclerotic plaque, oil red O staining (Example 2); type: in vivo
Source text: C57BL/6J.Apoe−/− male mice at the time of weaning (4 weeks) were placed on chow diet supplemented with 1.3% choline, 1.3% DMB, both, or neither. Aortic root section was stained with oil red 0/hematoxin. The red oil staining area inside the aorta indicates lesion plaque (SEE FIGS. 3 and 4).

platelets = assay: Ex vivo platelet aggregation triggered by ADP (Example 7); type: in vivo, mice
Method: In this example, mice were placed on either normal chow diet at time of weaning, or a high choline diet. After several weeks, whole blood was removed, and platelets isolated. The ability of a submaximal agonist of platelets, ADP, to trigger platelet aggregation was then determined. In parallel, plasma levels of TMAO were determined by established stable isotope dilution LC/MS/MS analyses. […] This is a clear signal of a pro-thrombotic phenotype in the mice on a high choline diet. In a similar study, the mice on the high choline were also placed on a cocktail of broad spectrum antibiotics (described above and in Wang et al., Nature 2011, April, 472(7341):57-63, incorporated by reference it its entirety for all purposes) to suppress intestinal microflora, and reduce plasma TMAO levels. […] Such drugs (e.g., DMB or antibiotics) are attractive since they should not induce excess bleeding (e.g., like commercial anti-thrombotic drugs like clopidogrel or Warfarin). That is, TMAO only accentuates platelet function, and reducing TMAO levels (like with DMB, antibiotic, or some other drug or approach, be it functional food, probiotic, or prebiotic) would decrease in vivo thrombosis, but not reduce below “normal” function, and thus not increase bleeding risk. […]

intestinal microflora = assay: Intestinal microflora-catalyzed generation of trimethylamine from choline, cecum homogenate (Example 6); type: biochemical; settings: D9-choline substrate, mouse cecum homogenate
Method: Experiments were conducted during development of embodiments of the present invention to examine the effect of DMB on intestinal microflora-catalyzed generation of trimethylamine from choline. Mouse celum was homogenized as a source of intestinal microflora. D9-choline was used as a substrate and the generation of […] was quantificed by stable isotope dilution LC/MS/MS.

wild-type mice = assay: Carotid artery in vivo thrombosis rate by vital microscopy, wild-type mice
Method: This example repeats the study immediately above, excepts uses wild-type mice. The results are shown FIG. 14.
Carotid artery in vivo thrombosis rates were determined using vital microscopy on the indicated groups of mice shown in FIG. 15. Mice were on the indicated diets +/− ABS or DMB for 3 weeks.

ApoE−/− mice = assay: Carotid artery in vivo thrombosis rate by vital microscopy, ApoE−/− mice; settings: diet high in choline or supplemented with TMAO, 3 weeks
Method: In this example, carotid artery in vivo thrombosis rates were determined using vital microscopy on the indicated groups of mice in FIG. 13. Mice were on the indicated diets +/− ABS for 3 weeks.
These studies extend to in vivo studies what was seen before with ex vivo platelet aggregation studies from mice on the various indicated diets. […] A shorter time indicates faster platelet aggregation (enhanced in vivo thrombosis).

[8] = female mice, diets for 3 weeks, ABS or DMB added (high choline diet)

## CC(C)(C)CCO [DMB, 3,3-dimethyl-1-butanol]
[1]
  plasma levels of TMAO: no TMAO increase
Peritoneal macrophages [2]
  macrophage cholesterol content: no increased accumulation
Peritoneal macrophages [3]
  high choline diet induced cholesterol accumulation and foam cell formation: reversed
[4]
  plasma HDL cholesterol: increase
  plasma low density lipoprotein-cholesterol: significant reductions
  plasma total cholesterol: significant reductions
  plasma triglyceride: significant reductions
[5]
  high choline diet induced increase in macrophage cholesterol content: blocked
[6]; WT thrombosis study, high choline diet plus ABS or DMB, 3 weeks
  diet induced TMAO levels: block TMAO levels
[6]; [8]
  plasma TMA formation: inhibits
  plasma TMAO formation: inhibits
[6]; platelet study, high choline diet plus antibiotics or DMB
  plasma TMAO formation: inhibits TMAO formation
[7]; 1.3% DMB added to normal chow diet, from weaning (4 weeks)
  reduction of aortic plaque formation: ~90%
[7]; chow supplemented with 1.3% choline and 1.3% DMB
  increases in atherosclerotic plaque induced by the high choline diet: blocks the diet-induced enhanced atherosclerosis
platelets; high choline diet plus antibiotics or DMB
  choline diet induced platelet hyperresponsiveness (aggregation): markedly reduces platelet hyperresponsiveness; also recorded: blocks platelet hyper-responsiveness
Intestinal microflora
  gut flora-mediated catabolism of choline to TMA: markedly inhibited
wild-type mice; WT mice, high choline diet plus ABS or DMB, 3 weeks
  change in in vivo thrombosis rates seen on a high choline diet: block the reduction in in vivo thrombosis rates seen on a high choline diet

## C[N+](C)(C)[O-] [TMAO, trimethylamine N-oxide, reference compound]
[1]
  plasma levels of TMAO: elevated
Peritoneal macrophages [2]
  macrophage cholesterol content: increased
platelets; diet supplemented with choline or TMAO vs normal chow
  platelet aggregation responses to ADP: promotes enhanced platelet aggregation
wild-type mice; wild-type mice, absence of dyslipidemia
  in vivo thrombosis rates: enhances in vivo thrombosis rates
ApoE−/− mice
  in vivo thrombosis rates (time to cessation of blood flow in the carotid artery): promotes accelerated in vivo thrombosis rates

— patent publication US9265736B2, “Treatment of cardiovascular disease and thrombosis” (THE CLEVELAND CLINIC FOUNDATION, priority 2011, dated 2016)
